Legend:
[1] = tested on: melanocyte precursors from hESC; experiment: Expansion and maturation of melanocytes; format: cell-based, human; settings: component left out of formulation
Excerpt: Melanocyte characteristics evaluated included induction of spindle morphology, pigmentation, and melanosome formation.
Specifically, the following time line of culturing conditions was developed that produced melanocytes of the present inventions: Feed on Day 0 and 1 with LDN and SB (using the same concentration ranges as LDN and SB in methods comprising 3i); Feed on Day 2 with LDN, SB, CHIR (using the same concentration ranges as LDN, SB, and CHIR in methods comprising 3i as described herein); In one embodiment, Feed on Day 3 with SB, CHIR (using the same concentration ranges as SB and CHIR in methods comprising 3i as described herein), in another embodiment Feed on Day 3 with LDN, SB, CHIR (using the same concentration ranges as LDN, SB, and CHIR in methods comprising 3i as described herein); Feed on Day 4 and 5 CHIR (using the same concentration ranges as CHIR in methods comprising 3i as described herein); Feed on Day 6 to 11 CHIR, BMP4, and EDN3 (using the same concentration ranges as CHIR in methods comprising 3i as described herein, see concentration ranges below for BMP4 and EDN3). On day 11 cells were passaged and fed with MEL media (including CHIR) up to 8 weeks. […]

hPSCs = experiment: Intracellular FACS for Nestin and TUJ1 (efficiency of neuronal differentiation); format: cell-based, human; settings: day 10, further inhibitors added day 2 of LSB treatment
Description: In the presence of LSB, SU/DAPT, DAPT, SU and CHIR, the majority of cells expressed Nestin. In particular, >95% of the LSB cell population were Nestin+.
Neural induction was performed as previously reported (Chambers, et al., Nat Biotechnol 27, (2009), herein incorporated by reference). Briefly, cells were collected then rendered to a single cell suspension using ACCUTASE (Sigma-Aldrich Corp. St. Louis, Mo., USA) and plated on gelatin for 30 minutes to remove Mouse Embryonic Fibroblast (MEF) Feeder Cells (MEFs) (MEFs adhere to gelatin coated plate). Non-adherent cells were collected and plated on matrigel treated dishes at a density of 20-40,000 cells/cm^2 in the presence of MEF-conditioned hESC media containing 10 ng/ml FGF-2 and 10 μM Y-27632 (rho-kinase inhibitor—Tocris Bioscience). Neural differentiation was initiated when the cells were confluent using Knockout Serum Replacement (KSR) media containing 820 ml of Knockout DMEM, 150 ml Knockout Serum Replacement, 1 mM L-glutamine, 100 μM MEM non-essential amino acids, and 0.1 mM β-mercaptoethanol. To inhibit SMAD signaling, 100 nM LDN-193189 and 10 μM SB431542 were added daily from day 0 (when SMAD signaling inhibitors LSB were added) through day 5. Cells were fed daily (i.e. 6 feedings with inhibitors, D0, D1, D2, D3, D4 and D5), and N2 media was added to the initial medium in increasing 25% increments every other day starting on day 4 (up to 100% N2 on day 10). […] After day 10, long-term culture media consisted of N2 media containing 10-100 ng/ml human-β-nerve growth factor (NGF), 10-100 ng/ml brain-derived neurotrophic factor (BDNF), and 10-100 ng/ml glial cell-derived neurotrophic factor (GDNF).
Cells were fixed with 4% paraformaldehyde for 20 minutes, washed with phosphate buffered saline (PBS), permeablized using 0.5% Triton X in PBS, and blocked using 1% BSA (bovine serum albumin) in phosphate buffered saline (PBS). For glutamate staining, 0.05% gluteraldehyde was added to the fixative. […]

human ES cells = experiment: Combinatorial small molecule screen, TUJ1/PAX6 immunofluorescence on day 10; format: cell-based; settings: no matter when added during LSB treatment
Excerpt: Specifically, in the context of dual SMAD inhibition (LSB), i.e. human ES cells were first treated with LSB (LDN-193189 and SB431542) for screening candidate compounds (i.e. small molecules) under approximately 400 conditions in order to find combinations of small molecules that might accelerate the acquisition of postmitotic neuron markers starting from human ES cells. Candidate compounds were chosen from molecules that targeted (altered) cell signaling pathways known to be important and frequently used in developmental studies in order to determine cell fates (for example, signaling pathways such as FGF, Notch, WNT, SHH (Sonic Hedgehog), etc.) for determining cells capable of CNS development. […]
On day 10 after addition of LSB, cells that survived during the screen were monitored for the loss of the human neuroectoderm marker PAX6 (Zhang, et al., Cell Stem Cell 7, 90-100, (2010), herein incorporated by reference) and initiation of neuronal differentiation by TUJ1 expression (Lee, et al., Cell Motil Cytoskeleton 17, 118-132, (1990), herein incorporated by reference). […] In general, results were determined by observing comparative amounts of TUJ1+/PAX6− staining of cells generated by each treatment such that the conditions and compounds showing the highest amounts of TUJ1+/PAX6− staining were chosen as successful for providing cells for further analysis. […]

[2] = tested on: transgenic SOX10::GFP BAC hESC line; experiment: SOX10::GFP reporter FACS (neural crest induction); format: cell-based, human; settings: by day 12 of differentiation
Excerpt: Thus, in order to determine if a neural crest intermediate cell fate marked by SOX10 (Aoki, et al., Dev Biol 259, 19-33, (2003); Lee, et al., Nat Biotechnol 25, 1468-1475, (2007), herein incorporated by reference) in human cells would be observed during differentiation using a transgenic SOX10::GFP bacterial artificial chromosome (BAC) hPSC line. This SOX10:: GFP (BAC) cell line was generated with enriched neural crest gene markers that co-expressed with a GFP gene using methods previously reported (Placantonakis, et al., Stem Cells 27:521-532, (2009), herein incorporated by reference). The SOX10:GFP cell line was a sub-clone of the H9 hESC line. Cells were dissociated and gene delivery was performed using reagents (solution V), protocol (B-16), and equipment from Amaxa. The DNA nucleofected (transfected into the nucleus) was a bacterial artificial chromosome (BAC) containing the SOX10 gene with an inserted GFP, obtained from Gene Expression Nervous System Atlas [GENSAT] (accession number: GENSAT1-BX1086). […]

rodent GSK3β homologs = settings: cited from earlier work
hESC = experiment: Timing of 3i addition after LSB induction (survival, TUJ1); format: cell-based
Excerpt: Cells were stained for identifying antibodies that bound to OCT4 (dark) and PAX6 (light) in addition to a nuclear 4′-6 Diamidino-2-phenylindole (DAPI) stain.
The stem cells treated with the combination of LSB and 3i were fixed on day 11 and examined for survival and expression of the neuronal marker TUJ1.

In the case of CCCCC/C=C\C/C=C\CCCCCCCC(=O)O [Linoleic Acid], the “requirement in medium for growth of melanocytes” value [1] is reported as “required”.

For Cc1c[nH]c(/C=C2\C(=O)Nc3ccccc32)c1CCC(=O)O [SU5402, 2-[(1,2-Dihydro-2-oxo-3H-indol-3-ylidene)methyl]-4-methyl-1H-pyrrole-3-propanoic acid], the “Nestin positive cells (progenitors)” value (hPSCs) was “majority”.

With CC1=C2C[C@H]3[C@@H](CC=C4C[C@@H](O)CC[C@@]43C)[C@@H]2CC[C@]12O[C@@H]1C[C@H](C)CN[C@H]1[C@H]2C [Cyclopamine] the “effect on TUJ1/PAX6 staining” value (human ES cells) was “no effect”.

For Cc1c[nH]c(-c2cnc(NCCNc3ccc(C#N)cn3)nc2-c2ccc(Cl)cc2Cl)n1 [CHIR99021, 6-(2-(4-(2,4-dichlorophenyl)-5-(4-methyl-1H-imidazol-2-yl)pyrimidin-2-ylamino)ethylamino)nicotinonitrile], the “SOX10::GFP+ cells” value [2] is given as “greater than 70%”, the “Nestin positive cells (progenitors)” value (hPSCs) is given as “majority” and the IC50 values (rodent GSK3β homologs) is given as “nanomolar”.

With c1ccc2c(-c3cnn4cc(-c5ccc(N6CCNCC6)cc5)cnc34)ccnc2c1 [LDN193189, 4-(6-(4-(piperazin-1-yl)phenyl)pyrazolo[1,5-a]pyrimidin-3-yl)quinoline] the “effect of inclusion or exclusion from days 5 to 10 on the differentiation” value (hESC) was “does not make a difference”.

For C[C@H](NC(=O)Cc1cc(F)cc(F)c1)C(=O)N[C@H](C(=O)OC(C)(C)C)c1ccccc1 [DAPT, N—[N-(3,5-Difluorophenacetyl)-L-alanyl]-S-phenylglycine t-butyl ester], the “Nestin positive cells (progenitors)” value (hPSCs) was “majority”.

Reference: US9453198B2, “Method of nociceptor differentiation of human embryonic stem cells and uses thereof” (MEMORIAL SLOAN KETTERING CANCER CENTER, priority 2010, dated 2016)
